Measured values taken from US20070112068A1, “Nitrile compound and its use in pest control” (priority 2003, published 2007).

Key:
Assay type in all cases: in vivo
[1] = tested on: Culex pipiens pallens; assay: Experimental Example 25: electric mosquito mat, Culex pipiens pallens; conditions: electric mosquito mat (Formulation Example 18); 20 minutes exposure, after 24 hours
Method: An electric mosquito mat of the present compound (31) prepared according to Formulation Example 18 is set on a heater for an electric mosquito mat and then placed on the centre of the floor of a chamber having 70 cm (width)×70 cm (depth)×70 cm (height). After the electric mosquito mat is initiated to be heated with the heater, about 20 female imagoes of Culex pipiens pallens are released in the chamber. After 20 minutes, all test pests are collected, placed in a plastic cup together with absorbent cotton impregnated with 5% sugar water, and left at 25° C.

[2] = tested on: Musca domestica; assay: Experimental Example 11: treated filter paper in Peet-Grady chamber, Musca domestica; conditions: 5 ml of 1% (w/v) acetone solution on filter paper; 1.8 m Peet-Grady chamber; 1 hour exposure, 24 hours later
Method: A 1% (w/v) solution of the present compound (31) in acetone was prepared. Onto a filter paper with 10 cm×25 cm, 5 ml of the solution was added dropwise uniformly and then air-dried. This filter paper was suspended from the center of the ceiling center of a Peet-Grady chamber with 1.8 m (width)×1.8 m (depth)×1.8 m (height) and therein about 50 imagoes of Musca domestica were released. After 1 hour, all test pests were collected, put into a plastic cup together with absorbent cotton impregnated with 5% sugar water, and then left at 25° C. After 24 hours, the number of surviving Musca domestica was examined and the death rate was calculated.

[3] = tested on: Clogmia albipunctata; assay: Experimental Example 9: treated filter paper suspended in glass chamber, Clogmia albipunctata; conditions: 2.5 ml of 2% (w/v) acetone solution on filter paper; 70 cm cube chamber; 2 hours exposure, 24 hours later
Method: (§1) A 2% (w/v) solution of the present compound (31) in acetone was prepared. Onto a filter paper with 10 cm×12.5 cm, 2.5 ml of the solution was added dropwise uniformly and then air-dried. This filter paper was suspended from the center of the ceiling of a glass chamber with 70 cm (width)×70 cm (depth)×70 cm (height) and therein 20 imagoes of Clogmia albipunctata were released. After 2 hours, all test pests were collected, put into a plastic cup together with absorbent cotton impregnated with 5% sugar water, and then left at 25° C. After 24 hours, the number of surviving Clogmia albipunctata was examined and the death rate was calculated (2 repetitions).

[4] = tested on: Culex pipiens pallens; assay: Experimental Example 27: fan-ventilated knitted fabric preparation, Culex pipiens pallens; conditions: preparation of Formulation Example 10 ventilated by electric fan; 20 minutes exposure, after 24 hours
Method: A preparation of the present compound (31) prepared according to Formulation Example 10 is set at the upper part of an electric fun shown in FIG. 5 and then placed on the center of the floor of a chamber having 70 cm (width)×70 cm (depth)×70 cm (height). After the electric fan is operated to initiate to ventilate the preparation, about 20 female imagoes of Culex pipiens pallens are released in the chamber. After 20 minutes, all test pests are collected, placed in a plastic cup together with absorbent cotton impregnated with 5% sugar water, and left at 25° C.

[5] = tested on: Periplaneta fuliginosa; assay: Experimental Example 16: treated filter paper in paper box, Periplaneta fuliginosa; conditions: 0.1 ml of 5% (w/v) acetone solution on filter paper in paper box; after 7 days
Method: 5% (w/v) solutions of the present compounds (23), (24) and (31) in acetone were prepared. 0.1 ml of the solution was added dropwise onto a filter paper with 2 cm×2 cm and then air-dried. This filter paper was attached to the center of the inside bottom of a paper box having 10 cm (width)×2 cm (height)×7 cm (depth) with a two-sided tape. One hole of 2 mm in width and 2 cm in height was made through one side of this box. This box was placed in a plastic vat with 25 cm×20 cm×8 cm in height and therein 3 females and 3 males of Periplaneta fuliginosa were released. The inside wall of the plastic vat used in this experiment was coated with talc for preventing the escape of cockroaches. The plastic vat contained feed and water and left at 25° C. After 7 days, Periplaneta fuliginosa was observed and the death rate of the pest was calculated. This experiment was repeated two times.

[6] = tested on: Formica fusca japonica; assay: Experimental Example 19: direct oil spray in CSMA chamber, Formica fusca japonica; conditions: 0.4 ml of 0.0625% (w/v) oil sprayed directly; after 72 hours
Method: 18.8 mg of the present compound (31) was dissolved in 30 mL of a mixed solvent of 90 parts by weight of Isopar M (isoparaffin, the registered trade name of Exxon Chemical) and 10 parts by weight of dichloromethane to prepare a 0.0625% (w/v) oil. A plastic cup (200 mL) containing 10 imagoes of Formica fusca japonica was placed on the bottom of a CSMA chamber (width: 46 cm, depth: 46 cm, height: 70 cm). 0.4 ml of the oil was directly sprayed on the test Formica fusca japonica from the upper side of the CSMA chamber. After 10 seconds from spraying, the container containing Formica fusca japonica was removed. Formica fusca japonica was transferred to another plastic container (200 mL) and left together with feed and water at 25° C. After 72 hours from pesticide treatment, Formica fusca japonica was observed and the death rate of the pest was calculated.

[7] = tested on: Megaselia spiracularis; assay: Experimental Example 8: treated filter paper suspended in glass chamber, Megaselia spiracularis; conditions: 2.5 ml of 2% (w/v) acetone solution on filter paper; 70 cm cube chamber; 2 hours exposure, 24 hours later
Method: as §1, with “Megaselia spiracularis” for “Clogmia albipunctata”, “in” for “into”, “calculated.” for “calculated (2 repetitions).”

[8] = tested on: Blattella germanica; assay: Experimental Example 22: treated filter paper suspended in chamber, Blattella germanica; conditions: 10 mL of 10% (w/v) acetone solution on filter paper; 70 cm cube chamber; after 72 hours
Method: A 10% (w/v) solution of the present compound (31) in acetone is prepared. 10 mL of the solution is uniformly added dropwise to a filter paper with 10 cm×25 cm and then air-dried. The filter paper is suspended from the center of the ceiling of a chamber with 70 cm (width)×70 cm (depth)×70 cm (height). After 20 imagoes (10 males and 10 females) of Blattella germanica are released, the door of the chamber is closed. Feed and water are placed in the glass chamber.

[9] = tested on: Coptotermes formosanus; assay: Experimental Example 12: topical application, Coptotermes formosanus; conditions: 0.2 μl of 0.005% (w/v) solution onto notum of thorax of ergates; after one day
Method: The present compound (31) was dissolved in a 0.05% (w/v) solution of Sudan red 7B in acetone so that the present compound concentration was 0.005% (w/v) to prepare an experimental pesticidal solution. Onto the notum of the thorax of ergates of Coptotermes formosanus, 0.2 μl of this experimental solution was added dropwise. After one day from treatment, the number of surviving pests was examined and the death rate of the pest was calculated.

N#CC(C#N)(CCC(F)(F)F)CC(F)(F)C(F)(F)C(F)(F)C(F)F [(31)]
pesticidal effect [1]: pesticidal effect on Culex pipiens pallens is confirmed | death rate of the pest [2]: 92% | death rate of the pest [3]: 83% | pesticidal effect [4]: pesticidal effect on Culex pipiens pallens is confirmed | death rate of the pest [5]: 100% | death rate of the pest [6]: 100% | death rate of the pest [7]: 100% | pesticidal effect [8]: pesticidal effect on Blattella germanica is confirmed | death rate of the pest [9]: 100%
